Results: patent publication US10849956B2, “Glycopeptide compositions” (priority 2014, dated 2020)
≈ marks a conversion by molar mass, not a printed value. Like-named read-outs stand apart in the source and are kept apart here.

Columns and labels:
[1] = tested on: Streptococcus pnemoniae ATCC 49619; assay: Antibacterial susceptibility testing, broth dilution method (CLSI); format: cell-based
Method: (§1) Testing was performed using broth dilution method according to Clinical and Laboratory Standards Institute (CLSI) guidelines M100-S23/S24; M07-A9, the disclosure of which is herein incorporated by reference.
(§2) The antibiotic activity of eight aqueous pharmaceutical compositions was determined and compared to the activity of the injectable reference finished product, Vancocin, manufactured by Flynn Pharma Ltd. Antibiotic activity was determined against quality control strains: Staphylococcus aureus ATCC 29213, Enterococcus faecalis ATCC 29212 and Streptococcus pnemoniae ATCC 49619.

[2] = cited from earlier work
[3] = tested on: Staphylococcus aureus ATCC 29213; assay: Antibacterial susceptibility testing, broth dilution method (CLSI); format: cell-based; conditions: ATCC29213, Table 6, solutions stored at 25 degrees Celsius for the test period in days indicated
Method: as §1, §2

[4] = tested on: Enterococcus faecalis ATCC 29212; assay: as above; format: cell-based; conditions: ATCC29212, Table 6, solutions stored at 25 degrees Celsius for the test period in days indicated
Method: as §1, §2

[5] = multiple dosing of 500 mg Vancomycin infused over 30 minutes

For CN[C@H](CC(C)C)C(=O)N[C@H]1C(=O)N[C@@H](CC(N)=O)C(=O)N[C@H]2C(=O)N[C@H]3C(=O)N[C@H](C(=O)N[C@H](C(=O)O)c4cc(O)cc(O)c4-c4cc3ccc4O)[C@H](O)c3ccc(c(Cl)c3)Oc3cc2cc(c3O[C@@H]2O[C@H](CO)[C@@H](O)[C@H](O)[C@H]2O[C@H]2C[C@](C)(N)[C@H](O)[C@H](C)O2)Oc2ccc(cc2Cl)[C@H]1O [Vancomycin USP standard, Vancomycin], which MIC ([1]; read-out: Streptococcus pneumoniae MIC (μg/mL)) is on record?
The MIC was 0.125 µg/mL (≈ 0.0863 µM).

What does the source list for CN[C@H](CC(C)C)C(=O)N[C@H]1C(=O)N[C@@H](CC(N)=O)C(=O)N[C@H]2C(=O)N[C@H]3C(=O)N[C@H](C(=O)N[C@@H](C(=O)O)c4cc(O)cc(O)c4-c4cc3ccc4O)[C@H](O)c3ccc(c(Cl)c3)Oc3cc2cc(c3O[C@@H]2O[C@@H](CO)[C@@H](O)[C@H](O)[C@@H]2O[C@@H]2C[C@](C)(N)[C@H](O)[C@@H](C)O2)Oc2ccc(cc2Cl)[C@H]1O [Vancomycin]?
mean plasma concentration immediately after infusion ([2]; intravenous infusion of 1 gram Vancomycin (15 mg/kg) over 60 minutes): 63 micrograms/mL; mean plasma concentration at the completion of infusion [2, 5]: about 49 microgram/mL; mean plasma concentration six hours after infusion [2, 5]: about 10 microgram/mL; mean plasma concentration two hours after infusion [2, 5]: about 19 microgram/mL

What does the source list for CC1(C)S[C@@H]2[C@H](NC(=O)[C@H](N)c3ccc(O)cc3)C(=O)N2[C@H]1C(=O)O [Amoxicillin USP standard, Amoxicillin]?
MIC [3]: 1 µg/mL (≈ 2.74 µM); MIC [4]: 0.5 µg/mL (≈ 1.37 µM); MIC ([1]; Table 6, solutions stored at 25 degrees Celsius for the test period in days indicated, read-out: Streptococcus pneumoniae MIC): 0.06 µg/mL (≈ 0.164 µM)
